Results taken from patent publication US20260355331A1, “CEREBLON DEGRADER CONJUGATES, AND USES THEREOF” (GENENTECH, INC., priority 2022, published 2026).
pIC50: −log10 of the molar value.

How the values were obtained:
[1] = release of lenalidomide and hydrolysis of sulfonyl-thio cDLI; type: in vitro ADME; conditions: with and without methyl adjacent to the glutarimide nitrogen
[2] = stability of cDLI under conjugation conditions; type: physicochemical; conditions: pH 8.5, 3 and 10 equivalents, 3 hours and overnight; LC/MS
[3] = cDLI stability in whole blood; type: in vitro ADME
[4] = reductive cleavage / release of lenalidomide in a model study; type: in vitro ADME; conditions: reduction
From the text: The nitro group of para-nitrobenzyloxymethyl lenalidomide cDLI-7 was reduced to amine in a model study. […] The disulfide group of para-nitropyridyl disulfidemethyl lenalidomide cDLI-8 was reduced in a model study.

proteases = assay: protease cleavage of cDAC made with cDLI; type: in vitro ADME; conditions: presence of proteases; cDAC of cDLI-6 variants
KPL-4 cells (HER2+) = assay: cell proliferation assay (CellTiter-Glo), KPL-4; type: cell-based; conditions: KPL4, 120 h; cereblon degrader compound, 5 days; read-out: IC50 anti-proliferative
From the text: (§1) The CellTiter-Glo® Luminescent Cell Viability Assay is a commercially available (Promega Corp., Madison, WI), homogeneous assay method based on the recombinant expression of Coleoptera luciferase (U.S. Pat. Nos. 5,583,024; 5,674,713; 5,700,670). This cell proliferation assay determines the number of viable cells in culture based on quantitation of the ATP present, an indicator of metabolically active cells (Crouch et al (1993) J. Immunol. Meth. 160:81-88; U.S. Pat. No. 6,602,677). The CellTiter-Glo® Assay was conducted in 96 well format, making it amenable to automated high-throughput screening (HTS) (Cree et al (1995) AntiCancer Drugs 6:398-404). […] Data can be recorded by luminometer or CCD camera imaging device. The luminescence output is expressed as relative light units (RLU). […]
(§2) Efficacy of the cDAC was measured by a cell proliferation assay employing the following protocol ([…] GLO™ Luminescent Cell Viability Assay, Promega Corp. Technical Bulletin TB288; Mendoza et al. (2002) Cancer Res. 62:5485-5488): • 1. […] The plate was incubated at room temperature for 5 minutes to stabilize the luminescence signal. • 8. Luminescence was recorded and reported in graphs as % activity where RLU (relative luminescence units) was normalized to controls (no antibody control minus no cell control). […]

SK-BR-3 cells (HER2+) = assay: cell proliferation assay (CellTiter-Glo), SK-BR-3; type: cell-based; conditions: Homo sapiens, SK-BR-3, 120 h; cereblon degrader compound, 5 days; read-out: IC50 anti-proliferative
From the text: as §1, §2

Compound: CC(OC(=O)OCN1C(=O)CCC(N2Cc3ccccc3C2=O)C1=O)C(C)SS(C)(=O)=O (stereo not drawn) [cDLI-9, S-(3-((((2,6-dioxo-3-(1-oxoisoindolin-2-yl)piperidin-1-yl)methoxy)carbonyl)oxy)butan-2-yl)methanesulfonothioate]
- release of lenalidomide (in words) [1]: cleaved to release detectable lenalidomide
- stability (in words) [1]: not stable, generating hydrolysis products
- stability under conjugation conditions (in words) [2]: Hydrolysis of the carbonate bond was observed

Compound: CC(CN1C(=O)C=CC1=O)SN1C(=O)CCC(N2Cc3ccccc3C2=O)C1=O (stereo not drawn) [cDLI-5, 1-((1-(2,5-dioxo-2,5-dihydro-1H-pyrrol-1-yl)propan-2-yl)thio)-3-(1-oxoisoindolin-2-yl)piperidine-2,6-dione]
- stability in whole blood (in words) [3]: not stable in whole blood

Compound: CC(C)(C)OC(=O)Nc1cccc2c1CN(C1CCC(=O)N(C(=O)OCC(C)(C)SS(C)(=O)=O)C1=O)C2=O (stereo not drawn) [cDLI-1, 2-methyl-2-((methylsulfonyl)thio)propyl 3-(4-((tert-butoxycarbonyl)amino)-1-oxoisoindolin-2-yl)-2,6-dioxopiperidine-1-carboxylate]
- stability under conjugation conditions (in words) [2]: too unstable under these conditions for conjugation

Compound: O=C1C=CC(=O)N1CCSN1C(=O)CCC(N2Cc3ccccc3C2=O)C1=O (stereo not drawn) [cDLI-4, 1-((2-(2,5-dioxo-2,5-dihydro-1H-pyrrol-1-yl)ethyl)thio)-3-(1-oxoisoindolin-2-yl)piperidine-2,6-dione]
- stability in whole blood (in words) [3]: not stable in whole blood

Compound: CC(C)(CSS(C)(=O)=O)OC(=O)OCN1C(=O)CCC(N2Cc3ccccc3C2=O)C1=O (stereo not drawn) [cDLI-10, S-(2-((((2,6-dioxo-3-(1-oxoisoindolin-2-yl)piperidin-1-yl)methoxy)carbonyl)oxy)-2-methylpropyl) methanesulfonothioate]
- stability under conjugation conditions (in words) [2]: Hydrolysis of the carbonate bond was observed

Compound: O=C1CCC(N2Cc3ccccc3C2=O)C(=O)N1CSSc1ccc([N+](=O)[O-])cn1 (stereo not drawn) [cDLI-8, 1-(((5-nitropyridin-2-yl)disulfaneyl)methyl)-3-(1-oxoisoindolin-2-yl)piperidine-2,6-dione]
- cleavage to release lenalidomide (in words) [4]: No cleavage of the disulfide group was observed

Compound: 6-(2,5-dioxo-2,5-dihydro-1H-pyrrol-1-yl)-N-((2S)-1-(((2S)-1-((4-((2,6-dioxo-3-(1-oxoisoindolin-2-yl)piperidin-1-yl)methyl)phenyl)amino)-1-oxopropan-2-yl)amino)-3-methyl-1-oxobutan-2-yl)hexanamide [cDLI-6]
- cleavage by proteases (in words) (proteases): failed to cleave in the presence of proteases

Compound: Cn1cc2c3c(c[nH]c3c1=O)CN(c1ncc(F)cc1F)c1cc(C(=O)NCCCCCCCNc3cccc4c3CN(C3CCC(=O)NC3=O)C4=O)c(CS(C)(=O)=O)cc1-2 (stereo not drawn) [cD-5, 4-(3,5-difluoropyridin-2-yl)-N-(7-((2-(2,6-dioxopiperidin-3-yl)-1-oxoisoindolin-4-yl)amino)heptyl)-10-methyl-7-((methylsulfonyl)methyl)-11-oxo-3,4,10,11-tetrahydro-1H-1,4,10-triazadibenzo[cd,f]azulene-6-carboxamide]
- pIC50 (KPL-4 cells (HER2+)): 9.19
- pIC50 (SK-BR-3 cells (HER2+)): 9.39

Compound: O=C1CCC(N2Cc3ccccc3C2=O)C(=O)N1COCc1ccc([N+](=O)[O-])cc1 (stereo not drawn) [cDLI-7, 1-(((4-nitrobenzyl)oxy)methyl)-3-(1-oxoisoindolin-2-yl)piperidine-2,6-dione]
- cleavage to release lenalidomide (in words) [4]: No cleavage of the para-aminobenzyloxy group was observed
